The METLIN SMRT retention time set (Domingo-Almenara et al. 2019)

experiment: gradient 5% acetonitrile 3 min, to 50% in 2 min, to 85% in 15 min, held 3 min, 100 µL/min; details: column: Zorbax Extend-C18 2.1 x 50 mm; eluents: water / acetonitrile, 0.1% formic acid
Method in brief: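 Standards, all pure, were combined into mixtures of ~100 molecules and run at 100 μL/min on a Zorbax Extend-C18 column (2.1 × 50 mm, 1.8 μm) with water and acetonitrile, each containing 0.1% formic acid. A coupled quadrupole time-of-flight mass spectrometer operated in positive and negative ionization mode. Retention time values come from computationally picked adduct peaks, each inspected manually.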

SMILES	RP-LC retention time [s]
O=C(NCc1csc(-c2ccccc2)n1)[C@H]1CCCN1C(=O)c1ccc(Br)cc1	866
O=C(NCc1ccco1)c1ccc2cnn(Cc3cccc(Cl)c3)c2c1	947
Cc1noc([C@@H]2CN(Cc3ccc(Cl)cc3F)C[C@H]2CO)n1	600
CCn1nccc1C(=O)N1C[C@@H]2C[C@H](NC(=O)c3ccccc3)[C@H]1C2	673
Cc1ccc(CNC(=O)C2(C)Cn3cnc(C(=O)NCCc4ccccc4)c3C(=O)N2C2CC2)cc1 (stereo not drawn)	816
COc1ccc(S(=O)(=O)NCCc2cn(CC(C)C)c3ncccc23)cc1Cl	962
O=C(Cn1nc(-n2cccn2)ccc1=O)Nc1cc(C(F)(F)F)ccc1Cl	730
CCN(CC)CCn1c(NCc2ccc(Br)cc2)nc2ccccc21	581
COc1ccc(-c2noc(-c3nnn4c3COC(c3ccc(C)cc3C)C4)n2)c(OC)c1 (stereo not drawn)	1170
O=C(Nc1ccccc1)c1c(O)c2cccnc2n(-c2ccc(F)cc2)c1=O	1210
CCOC(=O)NC(=O)c1ccsc1NC(=O)c1ccc([N+](=O)[O-])s1	851
O=C(c1ccsc1)N1CCCC1c1nc(-c2ccc(F)cc2F)no1 (stereo not drawn)	907
O=C(c1ccsc1)N1[C@H]2CC[C@@H]1c1cnc(-c3ccccc3)nc1C2	886
CCn1cc(C(=O)Nc2ccc(F)c(F)c2)c(S(=O)(=O)N2CCC(C)CC2)n1	1170
O=C(Cn1c(=O)c2cccn2c2ccccc21)Nc1cccc(Cl)c1	904
CN(C)C(=O)c1n[nH]c2c1CN(C(=O)c1cccc(Br)c1)CC2	654
Fc1ccccc1-c1nc(-c2ccc3nncn3c2)no1	785
O=C(C1=C(O)C(=O)N(CCCn2ccnc2)C1c1ccc(F)cc1)c1cc2ccccc2o1 (stereo not drawn)	622
O=c1ccc(S(=O)(=O)N2CCCC2)cn1Cc1ccccc1Cl	854
Cc1cc(C)n(Cc2nc(-c3ccc(NC(=O)COc4ccccc4)cc3)oc2C)n1	974
CCCC(=O)Nc1cnc(N2CCNCC2)c(C(=O)N(CC(C)C)CC(C)C)c1	652
O=c1ccc(S(=O)(=O)N2CCOCC2)cn1Cc1ccccc1F	723
O=C(CCCc1c[nH]c2ccccc12)NCCc1c[nH]c2ccccc12	830
CCC(=O)N(Cc1ccc(F)cc1)C(C)C(=O)c1c(C)c(C(=O)OC)n(C)c1C (stereo not drawn)	922
Cc1ccc(S(=O)(=O)NCc2ccccn2)c(C)c1C	626
Cc1nn(CC(=O)NCCN(C)C)c(=O)c2nc(-c3ccccc3)sc12	601
CS(=O)(=O)Nc1ccc(CC(=O)NC2CC2)cc1	585
COc1ccccc1OCCNC(=O)C1CC(=O)N(c2n[nH]c3cccc(F)c23)C1 (stereo not drawn)	688

Further lines, results first:

RP-LC retention time [s]	SMILES
738	CCOC(=O)c1nc(NCC2CCN(Cc3ccccc3C)CC2)c2c(C)noc2n1
1090	Cc1cccc(N2CCN(C(=O)C3CCCN(c4ncnc5c4nc4n5CCCCC4)C3)CC2)c1C (stereo not drawn)
645	Cc1cccc(C(=O)NC2CCN(c3nnc4ccccn34)CC2)c1
816	O=C(CCSc1ccccc1)Nc1ccc2c(c1)CN(C(=O)C1CC1)CC2
1130	COC(=O)c1ccccc1NC(=O)C1CCCN(c2ncnc3onc(-c4ccc(F)cc4)c23)C1 (stereo not drawn)
668	Cc1cc(C)c2c(n1)sc1c(N3CCC(C(=O)N4CCN(c5ccccn5)CC4)CC3)ncnc12
749	CC(C)c1nnc(-c2cccnc2N2CCN(C(=O)c3ccc4[nH]ccc4c3)CC2)o1
772	c1ccc(-c2noc(-c3ccc(N4CCN(C5CCCCC5)CC4)nc3)n2)cc1
719	COc1nccnc1N1CCC(N(C)C(=O)Cc2ccsc2)C1 (stereo not drawn)
1050	Cc1ccc(-c2noc(C3CCCN3C(=O)C3CC(=O)N(c4ccc(C)c(C)c4)C3)n2)cc1 (stereo not drawn)
803	O=C(CN1C(=O)CCCc2cc(S(=O)(=O)N3CCCC3)ccc21)Nc1ccccc1
613	O=C(CN1CCN(Cc2ccc(F)cc2)C1=O)N1CCN(C2CCCCC2)CC1
946	O=C(Nc1ccccc1F)N1CC(c2nc(CCOCC3CCCC3)no2)C1
616	COc1cccc(CNC(=O)C2CCN(c3cc(N4CCOCC4)ncn3)CC2)c1
648	CCCn1c(C2CCN(C(=O)Nc3ccc(F)cc3)CC2)cc(=O)n2nccc12
